Data reported in PubChem BioAssay (NCI).
Where “and” joins values, the source holds several entries; their conditions need not be identical. Equal entries are not always repeated.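 Dose response: 5 concentrations. Exposure: 48 h. Format: 96-well plates. Endpoint: linear interpolation; highest concentration if not reached. GI50: concentration for 50% inhibition of growth. TGI: total growth inhibition.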

Legend:
Assay in all cases: inhibition of tumour cell growth, NCI panel, 48 h
SR leukemia = system: SR leukemia
HCT-15 colon = system: HCT-15 colon
SN12C renal = system: SN12C renal
RXF 393 renal = system: RXF 393 renal
K-562 leukemia = system: K-562 leukemia
LOX IMVI melanoma = system: LOX IMVI melanoma
MALME-3M melanoma = system: MALME-3M melanoma
A498 renal = system: A498 renal
SNB-19 CNS = system: SNB-19 CNS
IGROV1 ovarian = system: IGROV1 ovarian

Compound | GI50 (SR leukemia) | TGI (SR leukemia) | GI50 (HCT-15 colon) | TGI (HCT-15 colon) | GI50 (SN12C renal) | TGI (SN12C renal) | GI50 (RXF 393 renal) | TGI (RXF 393 renal) | GI50 (K-562 leukemia) | TGI (K-562 leukemia) | GI50 (LOX IMVI melanoma) | TGI (LOX IMVI melanoma) | GI50 (MALME-3M melanoma) | TGI (MALME-3M melanoma) | GI50 (A498 renal) | TGI (A498 renal) | GI50 (SNB-19 CNS) | TGI (SNB-19 CNS) | GI50 (IGROV1 ovarian) | TGI (IGROV1 ovarian)
Cc1ccc(C(=O)Nc2ccc(Oc3cc4cnn(C)c4cc3-c3cn[nH]c3)c(F)c2)c(=O)n1-c1ccc(F)cc1 | > 38.8 µM | > 100 µM | 6.1 µM | > 100 µM | 3.08 µM | > 100 µM | 2.23 µM | > 100 µM | 5.75 µM | > 100 µM | 2.46 µM | > 100 µM | 3.35 µM | > 100 µM | 0.404 µM | > 100 µM | > 100 µM | > 100 µM | > 100 µM | > 100 µM
CN(C)CCNC(=O)Nc1ccc(N(C)c2ccnc(Nc3ccc(CS(C)(=O)=O)cc3)n2)cc1 | 14.8 µM | > 25 µM | > 25 µM | > 25 µM | > 25 µM | > 25 µM | > 25 µM | > 25 µM | > 25 µM | > 25 µM | > 25 µM | > 25 µM | > 25 µM | > 25 µM | > 25 µM | > 25 µM | > 25 µM | > 25 µM | > 25 µM | > 25 µM
CCN1C(=O)N(CC)C2C1NC(=S)N2/N=C/C=C/c1ccccc1 (centres undefined) | 0.0444 µM | > 100 µM | 0.0849 µM | > 100 µM | 0.385 µM | > 100 µM | 0.0899 µM | > 100 µM | 0.0495 µM | > 100 µM | 0.154 µM | > 100 µM | 3.55 µM | > 100 µM | 0.0249 µM | 0.146 µM | 0.127 µM | > 100 µM | 0.142 µM | > 100 µM
CC[n+]1c(-c2ccccc2)c2cc(N)ccc2c2ccc(N)cc21 | 0.801 µM and 1.69 µM and 4.08 µM | > 100 µM and 13 µM | 39.6 µM | > 100 µM | 0.306 µM | 12 µM and 19.7 µM and 7.37 µM | 1.07 µM | 3.51 µM and 17.1 µM | 1.75 µM | 30.1 µM and 50.5 µM and 35.3 µM | 2.31 µM and 3.12 µM and 7.53 µM | 13.7 µM and 21.2 µM and 34.7 µM | 0.631 µM | 2.9 µM and 6.43 µM | 5.18 µM and 4.76 µM and 14.7 µM | 40.8 µM and 52.5 µM and 66.2 µM | 0.368 µM and 0.502 µM and 1.43 µM |  | 0.522 µM | 10.2 µM and 12.9 µM
C/C(CCN(C)C)=N/O |  | 5.67 µM |  | 25.1 µM |  | 27.3 µM |  | 15.7 µM |  | 6.97 µM |  | 16.3 µM |  | 10.8 µM |  | 35.1 µM |  | > 100 µM |  | 39.2 µM
O=C(CCCCN1CCN(CCCCC(=O)Nc2ccccc2C#C/C=C\C#Cc2ccccc2C(F)(F)F)CC1)Nc1ccccc1C#C/C=C\C#Cc1ccccc1C(F)(F)F | 3.23 µM | 16.6 µM | 10.5 µM | 23.8 µM | 17.6 µM | > 50 µM | 9.81 µM | 23.5 µM | 8.04 µM | 34.8 µM | 10.1 µM | 20.2 µM | 12.2 µM | 29.5 µM | 11.7 µM | 22.9 µM | 11.7 µM | 32.1 µM | 9.37 µM | 26.2 µM
CNC(=O)OCc1nc(SSc2nc(COC(=O)NC)c(COC(=O)NC)n2C)n(C)c1COC(=O)NC |  | > 100 µM |  | > 100 µM |  | > 100 µM |  | > 100 µM |  | > 100 µM |  | > 100 µM |  | > 100 µM |  | > 100 µM |  | > 100 µM |  | > 100 µM
O=C(CI)NC(=O)NC(=O)NCc1ccccc1 | 0.804 µM | 3.1 µM | 2.03 µM | 4.94 µM | 3.5 µM | 14.6 µM | 2.98 µM | 9.31 µM | 1.16 µM | 4.05 µM | 1.44 µM | 3 µM | 1.57 µM | 3.52 µM | 15.9 µM | 30.9 µM | 13 µM | 31.9 µM | 2.56 µM | 6.83 µM
CCC(Oc1ccc(OC)c2c1C(=O)CCC2)C(=O)O (centres undefined) |  | > 100 µM |  | > 100 µM |  | > 100 µM |  | > 100 µM |  | > 100 µM |  | > 100 µM |  | > 100 µM |  | > 100 µM |  | > 100 µM |  | > 100 µM
